Reference: US20210318318A1, “Kinase Activity In Tumors” (Institute For Cancer Research d/b/a The Research Institute …, priority 2018, published 2021)

Tests used:
Format in all cases: cell-based, human
[1] = system: OVSAHO; experiment: Short-term growth assay (CellTiter-Glo cell viability), kinase inhibitors
Experimental: (§1) Cell viability was determined by Cell Titer Glo analysis.
(§2) To explore the therapeutic potential of the HGSOC kinome signature, a detailed molecular analysis of protein levels/activity, growth and survival functions was carried out in a panel of recently validated HGSOC cell lines (Coscia et al., Nat. Commun., 2016, 7, 12645) that harbor commonly encountered HGSOC mutations and genetic rearrangements (see, FIG. 5A).
(§3) For short-term growth assays, 3000-5000 cells were plated per well in 96-well plates and allowed to adhere and equilibrate overnight. Drug was added the following morning and after 120 hours of drug treatment, cell viability was assessed using the CellTiter-Glo Luminescent cell viability assay according to manufacturer (Promega). Students t tests were performed for statistical analyses and p values ≤0.05 were considered significant. For colony formation assays, cells were plated in 24-well dishes (3000-5000 cells per well) and incubated overnight before continuous drug treatment for 14 days, with drug and media replaced twice weekly. At the end of treatment, cells were rinsed with PBS and fixed with chilled methanol for 10 minutes at −20° C. Methanol was removed by aspiration, and cells were stained with 0.5% crystal violet in 20% methanol for 20 minutes at room temperature, washed with distilled water, and scanned.

[2] = system: Kuramochi; experiment: as above
Experimental: as §1, §2, §3

[3] = system: SNU-119; experiment: as above
Experimental: as §1, §2, §3

[4] = system: OVCAR4; experiment: as above
Experimental: as §1, §2, §3

[5] = system: COV362; experiment: as above
Experimental: as §1
COV362 cells were treated with increasing concentrations of A-674563 and cell viability assessed by Cell Titer Glo according to manufacturer's instructions. Data represent the mean of six replicates.
as §2, §3

[6] = system: OVCAR4 cells; experiment: Drug growth inhibition in cells depleted of dark kinases by siRNA (Cell Titer Glo); conditions: increasing doses of drug
Experimental: OVCAR4 cells were transfected with control nontargeting or dark kinase siRNAs and treated with escalating doses of appropriate drugs.
To explore if blocking dark kinases AAK1, STK38 or MRCKA activity in combination with current therapies improves drug efficacy, OVCAR4 cells depleted of AAK1, STK38 or MRCKA were treated with increasing doses of carboplatin, olaparib, JQ1, or a variety of kinase inhibitors in clinical trials for HGSOC.
siRNA transfections were performed using 25 nM siRNA duplex and the reverse transfection protocol. 3000-5000 cells per well were added to 96 well plates with media containing the siRNA and transfection reagent (Lipofectamine RNAiMax) according to the manufacturer's instructions. In experiments where inhibitors were used, the inhibitor was added at the time of transfection. Cells were allowed to grow for 72-120 hours post-transfection prior to CellTiter Glo (Promega) analysis. Two-to-three independent experiments were performed with each cell line and siRNA. Students t tests were performed for statistical analyses and p values ≤0.05 were considered significant. For western blot studies, the same procedure was performed with volumes and cell numbers proportionally scaled to a 60 mm or 10 cm dish, and cells were collected 24-72 hours post-transfection. siRNA product numbers and manufacturers are listed in Table 5.

[7] = system: HGSOC cells; experiment: Cell viability of HGSOC cell line panel (Cell Titer Glo); conditions: increasing concentrations; Cell Titer Glo
Experimental: Cells were treated with increasing concentrations of PF-03758309 and cell viability assessed by Cell Titer Glo according to manufacturer's instructions. Data represent the mean of six replicates.
Cell viability was assessed by Cell Titer Glo according to manufacturing. Data represent the mean of six replicates.
as §3

## NC1(c2ccc(-c3nc4ccn5c(=O)[nH]nc5c4cc3-c3ccccc3)cc2)CCC1 [MK2206]
[1]; drug 0.625 uM
  Kinase inhibition profile of HGSOC cells (growth inhibition, Cell Titer Glo): 0.6233
[2]; drug 0.625 uM
  Kinase inhibition profile of HGSOC cells (growth inhibition, Cell Titer Glo): 0.4701
[3]; drug 0.625 uM
  Kinase inhibition profile of HGSOC cells (growth inhibition, Cell Titer Glo): 0.9728
[4]; drug 0.625 uM
  Kinase inhibition profile of HGSOC cells (growth inhibition, Cell Titer Glo): 0.9771
[5]; drug 0.625 uM
  Kinase inhibition profile of HGSOC cells (growth inhibition, Cell Titer Glo): 0.8254

## C=CCn1c(=O)c2cnc(Nc3ccc(N4CCN(C)CC4)cc3)nc2n1-c1cccc(C(C)(C)O)n1 [MK-1775]
[1]; drug 0.312 uM
  Kinase inhibition profile of HGSOC cells (growth inhibition, Cell Titer Glo): 0.5935
[2]; drug 0.312 uM
  Kinase inhibition profile of HGSOC cells (growth inhibition, Cell Titer Glo): 1.111
[3]; drug 0.312 uM
  Kinase inhibition profile of HGSOC cells (growth inhibition, Cell Titer Glo): 0.4312
[4]; drug 0.312 uM
  Kinase inhibition profile of HGSOC cells (growth inhibition, Cell Titer Glo): 0.6747
[6]
  growth inhibition by drug with MRCKA knockdown relative to non-targeting control siRNA: enhanced growth inhibition
[5]; drug 0.312 uM
  Kinase inhibition profile of HGSOC cells (growth inhibition, Cell Titer Glo): 0.03494

## Cc1nc(Nc2[nH]nc3c2CN(C(=O)N[C@H](CN(C)C)c2ccccc2)C3(C)C)c2sccc2n1 [PF03758039]
[1]; drug 1.2 uM
  Kinase inhibition profile of HGSOC cells (growth inhibition, Cell Titer Glo): 0.659
[2]; drug 1.2 uM
  Kinase inhibition profile of HGSOC cells (growth inhibition, Cell Titer Glo): 0.4783
[3]; drug 1.2 uM
  Kinase inhibition profile of HGSOC cells (growth inhibition, Cell Titer Glo): 0.3505
[4]; drug 1.2 uM
  Kinase inhibition profile of HGSOC cells (growth inhibition, Cell Titer Glo): 0.2063
[7]
  cell viability of HGSOC cells: reduced cell viability to the greatest extent in OVCAR4 and KURMAOCHI cells
[5]; drug 1.2 uM
  Kinase inhibition profile of HGSOC cells (growth inhibition, Cell Titer Glo): 0.4916

## CC(=O)c1c(C)c2cnc(Nc3ccc(N4CCNCC4)cn3)nc2n(C2CCCC2)c1=O [Palbociclib]
[1]; drug 5 uM
  Kinase inhibition profile of HGSOC cells (growth inhibition, Cell Titer Glo): 0.6956
[2]; drug 5 uM
  Kinase inhibition profile of HGSOC cells (growth inhibition, Cell Titer Glo): 0.09321
[3]; drug 5 uM
  Kinase inhibition profile of HGSOC cells (growth inhibition, Cell Titer Glo): 0.5867
[4]; drug 5 uM
  Kinase inhibition profile of HGSOC cells (growth inhibition, Cell Titer Glo): 0.7952
[5]; drug 5 uM
  Kinase inhibition profile of HGSOC cells (growth inhibition, Cell Titer Glo): 0.92

## CN(C)C/C=C/C(=O)Nc1ccc(C(=O)Nc2cccc(Nc3ncc(Cl)c(-c4c[nH]c5ccccc45)n3)c2)cc1 [THZ1]
[1]; drug 0.156 uM
  Kinase inhibition profile of HGSOC cells (growth inhibition, Cell Titer Glo): 0
[2]; drug 0.156 uM
  Kinase inhibition profile of HGSOC cells (growth inhibition, Cell Titer Glo): 0.07069
[3]; drug 0.156 uM
  Kinase inhibition profile of HGSOC cells (growth inhibition, Cell Titer Glo): 0
[4]; drug 0.156 uM
  Kinase inhibition profile of HGSOC cells (growth inhibition, Cell Titer Glo): 0
[6]
  growth inhibition by drug combined with knockdown of STK38: improved growth inhibition
  growth inhibition by drug with MRCKA knockdown relative to non-targeting control siRNA: enhanced growth inhibition
[5]; drug 0.156 uM
  Kinase inhibition profile of HGSOC cells (growth inhibition, Cell Titer Glo): 1.026

## NC(=O)Nc1sc(-c2ccc(F)cc2)cc1C(N)=O [TPCA-1]
[1]; drug 1.2 uM
  Kinase inhibition profile of HGSOC cells (growth inhibition, Cell Titer Glo): 0.9827
[2]; drug 1.2 uM
  Kinase inhibition profile of HGSOC cells (growth inhibition, Cell Titer Glo): 0.988
[3]; drug 1.2 uM
  Kinase inhibition profile of HGSOC cells (growth inhibition, Cell Titer Glo): 0.9375
[4]; drug 1.2 uM
  Kinase inhibition profile of HGSOC cells (growth inhibition, Cell Titer Glo): 0.8768
[5]; drug 1.2 uM
  Kinase inhibition profile of HGSOC cells (growth inhibition, Cell Titer Glo): 1.094

## CC(=O)Nc1cccc(-n2c(=O)n(C3CC3)c(=O)c3c(Nc4ccc(I)cc4F)n(C)c(=O)c(C)c32)c1 [Trametinib]
[1]; drug 0.0125 uM
  Kinase inhibition profile of HGSOC cells (growth inhibition, Cell Titer Glo): 0.7824
[2]; drug 0.0125 uM
  Kinase inhibition profile of HGSOC cells (growth inhibition, Cell Titer Glo): 0.7708
[3]; drug 0.0125 uM
  Kinase inhibition profile of HGSOC cells (growth inhibition, Cell Titer Glo): 0
[4]; drug 0.0125 uM
  Kinase inhibition profile of HGSOC cells (growth inhibition, Cell Titer Glo): 0.8436
[5]; drug 0.0125 uM
  Kinase inhibition profile of HGSOC cells (growth inhibition, Cell Titer Glo): 0.5766

## CNCc1ccc(-c2cc(-c3nc(-c4ccc(S(=O)(=O)C(C)C)cc4)cnc3N)on2)cc1 [VX-90]
[1]; drug 0.625 uM
  Kinase inhibition profile of HGSOC cells (growth inhibition, Cell Titer Glo): 0.5885
[2]; drug 0.625 uM
  Kinase inhibition profile of HGSOC cells (growth inhibition, Cell Titer Glo): 0.6083
[3]; drug 0.625 uM
  Kinase inhibition profile of HGSOC cells (growth inhibition, Cell Titer Glo): 0.51
[4]; drug 0.625 uM
  Kinase inhibition profile of HGSOC cells (growth inhibition, Cell Titer Glo): 0.2646
[5]; drug 0.625 uM
  Kinase inhibition profile of HGSOC cells (growth inhibition, Cell Titer Glo): 0.3346

## Cc1cnc(Nc2ccc(F)cc2Cl)nc1-c1c[nH]c(C(=O)N[C@H](CO)c2cccc(Cl)c2)c1 [Vx-11e]
[1]; drug 0.625 uM
  Kinase inhibition profile of HGSOC cells (growth inhibition, Cell Titer Glo): 0.5488
[2]; drug 0.625 uM
  Kinase inhibition profile of HGSOC cells (growth inhibition, Cell Titer Glo): 0.3596
[3]; drug 0.625 uM
  Kinase inhibition profile of HGSOC cells (growth inhibition, Cell Titer Glo): 0.3359
[4]; drug 0.625 uM
  Kinase inhibition profile of HGSOC cells (growth inhibition, Cell Titer Glo): 0.9623
[5]; drug 0.625 uM
  Kinase inhibition profile of HGSOC cells (growth inhibition, Cell Titer Glo): 1.014

## AZD4547
[1]; drug 5 uM
  Kinase inhibition profile of HGSOC cells (growth inhibition, Cell Titer Glo): 0.4351
[2]; drug 5 uM
  Kinase inhibition profile of HGSOC cells (growth inhibition, Cell Titer Glo): 0.7095
[3]; drug 5 uM
  Kinase inhibition profile of HGSOC cells (growth inhibition, Cell Titer Glo): 0.738
[4]; drug 5 uM
  Kinase inhibition profile of HGSOC cells (growth inhibition, Cell Titer Glo): 0.5989
[5]; drug 5 uM
  Kinase inhibition profile of HGSOC cells (growth inhibition, Cell Titer Glo): 0.5474
